In US12570695B2, “Bicyclic peptide ligands specific for EphA2” (priority 2019, dated 2026):
Starred links: 1 amine or outer side, 2 acyl side, 3 side chain; linkers in the order of their positions; H or OH if unused. Positions of bridges follow the written chain, without caps; N, C: chain ends. Non-standard residues stand in square brackets, D forms with d. Residues, ends and D or L forms follow the SMILES beside them. TATA = O=C(CC[*:1])N1CN(C(=O)CC[*:2])CN(C(=O)CC[*:3])C1; 1Nal = N[C@@H](Cc1cccc2ccccc12)C(=O)O; d1Nal = N[C@H](Cc1cccc2ccccc12)C(=O)O; Hyp = O=C(O)[C@@H]1C[C@@H](O)CN1; hArg = N=C(N)NCCCC[C@H](N)C(=O)O; 3Thi = N[C@@H](Cc1ccsc1)C(=O)O; Aad = N[C@@H](CCCC(=O)O)C(=O)O; Cba = N[C@@H](CC1CCC1)C(=O)O; dNle = CCCC[C@@H](N)C(=O)O; NMeA = CN[C@@H](C)C(=O)O

Each molecule was assayed against human EphA2 (Homo sapiens, UniProt P29317) (assay: biochemical).
Sequence of human EphA2 (P29317 24-976): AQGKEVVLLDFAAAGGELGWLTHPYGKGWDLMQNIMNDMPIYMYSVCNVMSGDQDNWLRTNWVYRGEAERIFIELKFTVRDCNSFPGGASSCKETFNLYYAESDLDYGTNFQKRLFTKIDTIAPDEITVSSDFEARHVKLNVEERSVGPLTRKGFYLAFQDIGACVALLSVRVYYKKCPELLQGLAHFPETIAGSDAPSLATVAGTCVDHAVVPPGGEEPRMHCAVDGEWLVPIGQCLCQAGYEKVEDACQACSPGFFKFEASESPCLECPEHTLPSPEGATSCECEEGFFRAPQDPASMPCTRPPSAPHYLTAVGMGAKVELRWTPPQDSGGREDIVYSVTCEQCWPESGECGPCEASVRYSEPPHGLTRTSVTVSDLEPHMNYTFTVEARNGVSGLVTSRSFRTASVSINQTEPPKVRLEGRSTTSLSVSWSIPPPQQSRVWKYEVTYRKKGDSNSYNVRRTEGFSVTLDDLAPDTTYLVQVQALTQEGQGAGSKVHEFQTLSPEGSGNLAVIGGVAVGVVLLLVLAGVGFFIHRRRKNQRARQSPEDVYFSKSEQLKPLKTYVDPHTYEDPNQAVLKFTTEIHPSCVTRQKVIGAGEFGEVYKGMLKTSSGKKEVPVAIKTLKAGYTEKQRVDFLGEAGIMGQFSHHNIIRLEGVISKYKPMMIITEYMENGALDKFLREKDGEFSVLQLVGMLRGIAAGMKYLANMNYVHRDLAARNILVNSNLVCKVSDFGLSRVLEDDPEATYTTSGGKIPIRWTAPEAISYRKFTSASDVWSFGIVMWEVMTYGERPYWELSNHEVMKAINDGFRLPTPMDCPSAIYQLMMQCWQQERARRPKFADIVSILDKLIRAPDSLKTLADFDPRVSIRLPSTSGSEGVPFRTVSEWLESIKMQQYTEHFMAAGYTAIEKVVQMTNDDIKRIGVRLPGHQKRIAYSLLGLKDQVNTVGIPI
Description: Peptides without a fluorescent tag were tested in competition with a peptide with a fluorescent tag and a known Kd.
Peptides were diluted to an appropriate concentration in assay buffer as described in the direct binding assay with a maximum of 5% DMSO, then serially diluted 1 in 2. […] Measurements were conducted, however the gain was determined prior to the first measurement. Data analysis was in Systat Sigmaplot version 12.0 where the mP values were fit to a user defined cubic equation to generate a Ki value:
“Lig”, “KLig” and “Prot” were all defined values relating to: fluorescent peptide concentration, the Kd of the fluorescent peptide and EphA2 concentration respectively.

SMILES | Ki
CC(C)C[C@@H]1NC(=O)[C@@H]2CSCCC(=O)N3CN(CN(C3)C(=O)CCSC[C@H](NC(=O)[C@H](CC(=O)O)NC(=O)[C@H](CCCCNC(=N)N)NC(=O)[C@H](C)N)C(=O)N3C[C@H](O)C[C@H]3C(=O)N[C@@H](CC(C)C)C(=O)N[C@@H](C(C)C)C(=O)N[C@@H](CC(N)=O)C(=O)N3CCC[C@H]3C(=O)N[C@@H](CC(C)C)C(=O)N2)C(=O)CCSC[C@@H](C(N)=O)NC(=O)[C@H](CCCCNC(=N)N)NC(=O)[C@H](Cc2c[nH]c3ccccc23)NC(=O)[C@@H](CC(=O)O)NC(=O)[C@@H]2CCCN2C(=O)[C@H](CCC(N)=O)NC1=O [BCY14048, A[HArg]DCi[HyP]LVNPLCiiLQP[dD]W[HArg]Ciii] (H-A[hArg]DC[Hyp]LVNPLCLQP[dD]W[hArg]C-NH2; linker 4-11-18 via TATA; N-terminus and C-terminus assumed) | 4.1 nM
CC(C)C[C@@H]1NC(=O)[C@@H]2CSCCC(=O)N3CN(CN(C3)C(=O)CCSC[C@H](NC(=O)[C@H](CC(=O)O)NC(=O)[C@H](CCCCNC(=N)N)NC(=O)[C@H](C)N)C(=O)N3C[C@H](O)C[C@H]3C(=O)N[C@@H](CC3CCC3)C(=O)N[C@@H](C(C)C)C(=O)N[C@@H](CC(N)=O)C(=O)N3CCC[C@H]3C(=O)N[C@@H](CC(C)C)C(=O)N2)C(=O)CCSC[C@@H](C(N)=O)NC(=O)[C@H](CCCCNC(=N)N)NC(=O)[C@H](Cc2c[nH]c3ccccc23)NC(=O)[C@@H](CC(=O)O)NC(=O)[C@@H]2CCCN2C(=O)[C@H](Cc2c[nH]cn2)NC1=O [BCY12862, A-[HArg]-D-Ci[HyP][Cba]VNPLCiiLHP[dD]W[HArg]Ciii] (H-A[hArg]DC[Hyp][Cba]VNPLCLHP[dD]W[hArg]C-NH2; linker 4-11-18 via TATA; N-terminus and C-terminus assumed) | 1.22 nM
CC(C)C[C@@H]1NC(=O)[C@@H]2CSCCC(=O)N3CN(CN(C3)C(=O)CCSC[C@H](NC(=O)[C@H](CC(=O)O)NC(=O)[C@H](CCCCNC(=N)N)NC(=O)[C@H](C)N)C(=O)N3C[C@H](O)C[C@H]3C(=O)N[C@@H](CC(C)C)C(=O)N[C@@H](C(C)C)C(=O)N[C@@H](CC(N)=O)C(=O)N3CCC[C@H]3C(=O)N[C@@H](CC(C)C)C(=O)N2)C(=O)CCSC[C@@H](C(=O)N[C@H](C)C(N)=O)NC(=O)[C@H]([C@@H](C)O)NC(=O)[C@H](Cc2c[nH]c3ccccc23)NC(=O)[C@@H](CC(=O)O)NC(=O)[C@@H]2CCCN2C(=O)[C@H](CCC(=O)O)NC1=O [BCY12857, A-[HArg]-D-Ci[HyP]LVNPLCiiLEP[dD]WTCiii[dA]] (H-A[hArg]DC[Hyp]LVNPLCLEP[dD]WTC[dA]-NH2; linker 4-11-18 via TATA; N-terminus and C-terminus assumed) | 16 nM
CC(C)C[C@@H]1NC(=O)[C@@H]2CSCCC(=O)N3CN(CN(C3)C(=O)CCSC[C@H](NC(=O)[C@H](CC(=O)O)NC(=O)[C@H](CCCCNC(=N)N)NC(=O)[C@H](C)N)C(=O)N3C[C@H](O)C[C@H]3C(=O)N[C@@H](CC(C)C)C(=O)N[C@@H](C(C)C)C(=O)N[C@@H](CC(N)=O)C(=O)N3CCC[C@H]3C(=O)N[C@@H](CC(C)C)C(=O)N2)C(=O)CCSC[C@@H](C(N)=O)NC(=O)[C@H](CCCCNC(=N)N)NC(=O)[C@H](Cc2c[nH]c3ccccc23)NC(=O)[C@@H](CC(=O)O)NC(=O)[C@@H]2CCCN2C(=O)[C@H](CCCC(=O)O)NC1=O [BCY13132, A-[HArg]-D-Ci[HyP]LVNPLCiiL[hGlu]P[dD]W[HArg]Ciii] (H-A[hArg]DC[Hyp]LVNPLCL[Aad]P[dD]W[hArg]C-NH2; linker 4-11-18 via TATA; N-terminus and C-terminus assumed) | 7.08 nM
CC(C)C[C@@H]1NC(=O)[C@@H]2CSCCC(=O)N3CN(CN(C3)C(=O)CCSC[C@H](NC(=O)[C@H](CC(=O)O)NC(=O)[C@H](CCCCNC(=N)N)NC(=O)[C@H](C)N)C(=O)N3C[C@H](O)C[C@H]3C(=O)N[C@@H](CC(C)C)C(=O)N[C@@H](C(C)C)C(=O)N[C@@H](CC(N)=O)C(=O)N3CCC[C@H]3C(=O)N[C@@H](CC(C)C)C(=O)N2)C(=O)CCSC[C@@H](C(N)=O)NC(=O)[C@H]([C@@H](C)O)NC(=O)[C@H](Cc2c[nH]c3ccccc23)NC(=O)[C@@H](Cc2cccc3ccccc23)NC(=O)[C@@H]2CCCN2C(=O)[C@H](CCC(=O)O)NC1=O [BCY13118, A-[HArg]-D-Ci[HyP]LVNPLCiiLEP[d1Nal]WTCiii] (H-A[hArg]DC[Hyp]LVNPLCLEP[d1Nal]WTC-NH2; linker 4-11-18 via TATA; N-terminus and C-terminus assumed) | 5.42 nM
CC(C)C[C@@H]1NC(=O)[C@@H]2CSCCC(=O)N3CN(CN(C3)C(=O)CCSC[C@H](NC(=O)[C@H](CC(=O)O)NC(=O)[C@H](CCCCNC(=N)N)NC(=O)[C@H](C)N)C(=O)N3C[C@H](O)C[C@H]3C(=O)N[C@@H](CC(C)C)C(=O)N[C@@H](C(C)C)C(=O)N[C@@H](CC(N)=O)C(=O)N3CCC[C@H]3C(=O)N[C@@H](CC(C)C)C(=O)N2)C(=O)CCSC[C@@H](C(N)=O)NC(=O)[C@H](CCCCNC(=N)N)NC(=O)[C@H](Cc2c[nH]c3ccccc23)NC(=O)[C@@H](CC(=O)O)NC(=O)[C@@H]2CCCN2C(=O)[C@H](Cc2ccsc2)NC1=O [BCY13923, A[HArg]DCi[HyP]LVNPLCiiL[3Thi]P[dD]W[HArg]Ciii] (H-A[hArg]DC[Hyp]LVNPLCL[3Thi]P[dD]W[hArg]C-NH2; linker 4-11-18 via TATA; N-terminus and C-terminus assumed) | 1.32 nM
CCCC[C@H]1NC(=O)[C@@H]2CCCN2C(=O)[C@H](Cc2c[nH]cn2)NC(=O)[C@H](CC(C)C)NC(=O)[C@@H]2CSCCC(=O)N3CN(CN(C3)C(=O)CCSC[C@H](NC(=O)[C@H](CC(=O)O)NC(=O)[C@H](CCCCNC(=N)N)NC(=O)[C@H](C)N)C(=O)N3C[C@H](O)C[C@H]3C(=O)N[C@@H](CC(C)C)C(=O)N[C@@H](C(C)C)C(=O)N[C@@H](CC(N)=O)C(=O)N3CCC[C@H]3C(=O)N[C@@H](CC(C)C)C(=O)N2)C(=O)CCSC[C@@H](C(N)=O)NC(=O)[C@H](CCCCNC(=N)N)NC(=O)[C@H](Cc2c[nH]c3ccccc23)NC1=O [BCY13134, A-[HArg]-D-Ci[HyP]LVNPLCiiLHP[dNle]W[HArg]Ciii] (H-A[hArg]DC[Hyp]LVNPLCLHP[dNle]W[hArg]C-NH2; linker 4-11-18 via TATA; N-terminus and C-terminus assumed) | 1.16 nM
CC(C)C[C@@H]1NC(=O)[C@@H]2C[C@@H](O)CN2C(=O)[C@@H](NC(=O)[C@H](CC(=O)O)NC(=O)[C@H](CCCCNC(=N)N)NC(=O)[C@H](C)N)CSCCC(=O)N2CN3CN(C2)C(=O)CCSC[C@H](NC(=O)[C@H](CC(C)C)NC(=O)[C@@H]2CCCN2C(=O)[C@H](CC(N)=O)NC(=O)[C@H](C(C)C)NC1=O)C(=O)N[C@@H](CCCC(=O)O)C(=O)N[C@@H](Cc1c[nH]cn1)C(=O)N1CCC[C@H]1C(=O)N[C@H](CC(=O)O)C(=O)N[C@@H](Cc1c[nH]c2ccccc12)C(=O)N[C@@H](CCCCNC(=N)N)C(=O)N[C@H](C(N)=O)CSCCC3=O [BCY13131, A-[HArg]-D-Ci[HyP]LVNPLCii[hGlu]HP[dD]W[HArg]Ciii] (H-A[hArg]DC[Hyp]LVNPLC[Aad]HP[dD]W[hArg]C-NH2; linker 4-11-18 via TATA; N-terminus and C-terminus assumed) | 27.1 nM
CC(C)C[C@@H]1NC(=O)[C@@H]2CSCCC(=O)N3CN(CN(C3)C(=O)CCSC[C@H](N)C(=O)N3C[C@H](O)C[C@H]3C(=O)N[C@@H](CC(C)C)C(=O)N[C@@H](C(C)C)C(=O)N[C@@H](CC(N)=O)C(=O)N3CCC[C@H]3C(=O)N[C@@H](CC(C)C)C(=O)N2)C(=O)CCSC[C@@H](C(N)=O)NC(=O)[C@H]([C@@H](C)O)NC(=O)[C@H](Cc2c[nH]c3ccccc23)NC(=O)[C@@H](CC(=O)O)NC(=O)[C@@H]2CCCN2C(=O)[C@H](Cc2cccc3ccccc23)NC1=O [BCY13119, Ci[HyP]LVNPLCiiL[1Nal]P[dD]WTCiii] (H-C[Hyp]LVNPLCL[1Nal]P[dD]WTC-NH2; linker 1-8-15 via TATA; N-terminus and C-terminus assumed) | 2.64 nM
CC(C)C[C@@H]1NC(=O)[C@@H]2CSCCC(=O)N3CN(CN(C3)C(=O)CCSC[C@H](NC(=O)[C@H](CC(=O)O)NC(=O)[C@H](CCCCNC(=N)N)NC(=O)[C@@H](C)N)C(=O)N3C[C@H](O)C[C@H]3C(=O)N[C@@H](CC3CCC3)C(=O)N[C@@H](C(C)C)C(=O)N[C@@H](CC(N)=O)C(=O)N3CCC[C@H]3C(=O)N[C@@H](CC(C)C)C(=O)N2)C(=O)CCSC[C@@H](C(=O)N[C@H](C)C(N)=O)NC(=O)[C@H]([C@@H](C)O)NC(=O)[C@H](Cc2c[nH]c3ccccc23)NC(=O)[C@@H](CC(=O)O)NC(=O)[C@@H]2CCCN2C(=O)[C@H](CCC(=O)O)NC1=O [BCY12864, [dA]-[HArg]-D-Ci[HyP][Cba]VNPLCiiLEP[dD]WTCiii-[dA]] (H-[dA][hArg]DC[Hyp][Cba]VNPLCLEP[dD]WTC[dA]-NH2; linker 4-11-18 via TATA; N-terminus and C-terminus assumed) | 9.29 nM
CN[C@@H](C)C(=O)N[C@@H](CCCCNC(=N)N)C(=O)N[C@@H](CC(=O)O)C(=O)N[C@H]1CSCCC(=O)N2CN3CN(C2)C(=O)CCSC[C@H](NC(=O)[C@H](CC(C)C)NC(=O)[C@@H]2CCCN2C(=O)[C@H](CC(N)=O)NC(=O)[C@H](C(C)C)NC(=O)[C@H](CC(C)C)NC(=O)[C@@H]2C[C@@H](O)CN2C1=O)C(=O)N[C@@H](CC(C)C)C(=O)N[C@@H](CCC(=O)O)C(=O)N1CCC[C@H]1C(=O)N[C@H](CC(=O)O)C(=O)N[C@@H](Cc1c[nH]c2ccccc12)C(=O)N[C@@H]([C@@H](C)O)C(=O)N[C@H](C(N)=O)CSCCC3=O [BCY13122, [NMeAla]-[HArg]-D-Ci[HyP]LVNPLCiiLEP[dD]WTCiii] (H-[NMeA][hArg]DC[Hyp]LVNPLCLEP[dD]WTC-NH2; linker 4-11-18 via TATA; N-terminus and C-terminus assumed) | 7.8 nM
CC(C)C[C@@H]1NC(=O)[C@@H]2CSCCC(=O)N3CN(CN(C3)C(=O)CCSC[C@H](NC(=O)[C@H](CC(=O)O)NC(=O)[C@H](CCCCNC(=N)N)NC(=O)[C@H](C)N)C(=O)N3C[C@H](O)C[C@H]3C(=O)N[C@@H](CC(C)C)C(=O)N[C@@H](C(C)C)C(=O)N[C@@H](CC(N)=O)C(=O)N3CCC[C@H]3C(=O)N[C@@H](CC(C)C)C(=O)N2)C(=O)CCSC[C@@H](C(N)=O)NC(=O)[C@H](CCCCNC(=N)N)NC(=O)[C@H](Cc2c[nH]c3ccccc23)NC(=O)[C@@H](CC(=O)O)NC(=O)[C@@H]2CCCN2C(=O)[C@H](CC(N)=O)NC1=O [BCY14047, A[HArg]DCi[HyP]LVNPLCiiLNP[dD]W[HArg]Ciii] (H-A[hArg]DC[Hyp]LVNPLCLNP[dD]W[hArg]C-NH2; linker 4-11-18 via TATA; N-terminus and C-terminus assumed) | 3.88 nM
